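Compound exposure: 48 hours, 5 concentrations, 96-well plates. GI50 = concentration required for 50% inhibition of growth.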 The source made the active and inactive calls. Cut-off read from the data, not from the text of the source: active = GI50 up to about 1.1 µM and inactive = higher.

Common to all, as to assay: NCI tumour cell line growth inhibition, 48 h
Test [1] has as its system COLO 205.
For test [2], the system named is NCI-H522.
For test [3], the system named is HOP-92.
Test [4] deals with RXF 393.
Test [5] has as its system HL-60.
In test [6] the test system is HT-29.
Test [7] relates to ACHN.
For test [8], the system named is RPMI-8226.
The subject of test [9] is U-251.
In test [10] the test system is EKVX.
Test [11] relates to K562.
Test [12] relates to UO-31.
Test [13] relates to TK-10.
Test [14] relates to SNB-19.
In test [15] the test system is UACC-257.
In test [16] the test system is CCRF-CEM.
The test system of test [17] is NCI-H226.

With `C=C1C(=O)OC2C1C(OC(=O)/C(C)=C\C)CC1(CO1)C1C(O)C=C(C)C21O` (stereo unspecified), the GI50 in test [1] is 1.17 µM (inactive); in [2], 0.942 µM (active); in test [3], 10.7 µM (inactive); in test [4], 2.73 µM (inactive); in test [5], 3.04 µM (inactive); in test [6], 13 µM (inactive). The GI50 in [7] is 3.16 µM (inactive); in test [8], 4.56 µM (inactive); in test [9], 12.2 µM (inactive); in test [10], 12.8 µM (inactive); in test [11], 4.72 µM (inactive); in [12] it was 10.3 µM (inactive). Further, the GI50 in [13] is 3.44 µM (inactive); in test [14] it was 20.7 µM (inactive); in test [15], 9.73 µM (inactive); in [16], 2.65 µM (inactive).

Take `CC(C)C(=O)/C=C/c1ccccc1`: the GI50 in test [1] is > 100 µM (inactive); in test [2], 31 µM (inactive); in [3], > 100 µM (inactive); in test [4], > 100 µM (inactive); in test [5], 42.3 µM (inactive); in [6], 53.5 µM (inactive). Moreover, the GI50 in test [7] was 81.5 µM (inactive); in [8], 37.1 µM (inactive); in [9], 61.2 µM (inactive); in test [11] it was 33.7 µM (inactive); in [12], > 100 µM (inactive); in test [14], > 100 µM (inactive). The GI50 in [15] is 94.8 µM (inactive); in test [16], 23.9 µM (inactive).

In the case of `O=C(/N=N/C(=O)OCc1ccccc1)OCc1ccccc1`, the GI50 in [1] is > 100 µM (inactive); in [3], 10.4 µM (inactive); in [4] it was > 100 µM (inactive); in test [5], 43.7 µM (inactive); in test [6] it was > 100 µM (inactive); in test [7] it was 76.4 µM (inactive). Moreover, the GI50 is 53.2 µM (inactive) in test [8]; 83.8 µM (inactive) in test [9]; > 100 µM (inactive) in [10]; 63.5 µM (inactive) in test [11]; 31.6 µM (inactive) in test [12]; > 100 µM (inactive) in [13]. Further, the GI50 in [14] is 64.9 µM (inactive); in test [15], > 100 µM (inactive); in [16], 84.1 µM (inactive).

Take `CCC(C(=O)c1ccccc1)C(CCCC(=O)Nc1c(C)cccc1C)N=O` (stereo unspecified): the GI50 in [1], in test [2], in [3], in test [17], in test [5] and in test [6] was > 100 µM (inactive) in each case. Besides, the GI50 in test [7], in test [8], in [9], in [10], in test [11] and in test [12] was > 100 µM (inactive) in each case. In addition, the GI50 in test [13], in test [14], in [15] and in [16] was > 100 µM (inactive) throughout.

`CCCCCCCCNC(=O)SCCCC`: the GI50 in test [1] is 45.2 µM (inactive); in [2], 24.4 µM (inactive); in test [3] it was 17.6 µM (inactive); in test [4], 24.3 µM (inactive); in [5], 18.8 µM (inactive); in [6], 20.8 µM (inactive). The GI50 in test [7] was 34.6 µM (inactive); in test [8], 22.4 µM (inactive); in test [9], 36.9 µM (inactive); in [10], 29.4 µM (inactive); in test [11], 34.4 µM (inactive); in test [12] it was 26.5 µM (inactive). The GI50 is 29 µM (inactive) in test [13], 27.5 µM (inactive) in [14] and 23.4 µM (inactive) in test [16].
